# In article PMC10065799, “High-throughput profiling of sequence recognition by tyrosine kinases and SH2 domains using bacterial peptide display” (eLife, 2023):
# Where two headings read alike, the source gives them in different places.
# Tests used:
# Test in all cases: pTyr-Var library bacterial peptide display kinase screen (enrichment scores)
# Fer kinase domain = format: biochemical, mouse; settings: sheet "Fer"
# c-Src kinase domain = c-Src kinase domain (Homo sapiens, UniProt P12931); format: biochemical
# c-Abl kinase domain = target: T1, c-Abl kinase domain (Mus musculus, UniProt P00520); format: biochemical
# T1 sequence (P00520 242-493 limits assumed): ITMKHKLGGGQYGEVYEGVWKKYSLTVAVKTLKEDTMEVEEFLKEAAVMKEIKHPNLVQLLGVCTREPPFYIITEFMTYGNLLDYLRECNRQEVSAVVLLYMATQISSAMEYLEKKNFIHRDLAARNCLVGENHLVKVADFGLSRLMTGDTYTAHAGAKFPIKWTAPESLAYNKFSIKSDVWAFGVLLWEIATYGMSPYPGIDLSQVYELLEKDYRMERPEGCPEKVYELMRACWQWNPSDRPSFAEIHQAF
# EPHB1 kinase domain = format: biochemical, human; settings: sheet EPHB1; effect of the variant peptide relative to its reference peptide in the pTyr-Var library screen (enrichment scores)
# [1] = variant peptide relative to its reference peptide, pTyr-Var library screen enrichment
# [2] = sheet "Src", variant peptide versus its reference peptide in the pTyr-Var library screen
# [3] = sheet "Abl", effect of variant peptide relative to its reference peptide in pTyr-Var library screen (enrichment)
# [4] = fig5-data2, sheet "Abl", Screen for the variant/reference peptide pair, pTyr-Var library
# [5] = sheet "Src", effect of the variant peptide relative to its reference peptide in the pTyr-Var library screen
# [6] = value of the variant peptide against its reference peptide in the pTyr-Var library screen with Fer
# 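Also: log2 fold change in enrichment of variant over reference.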
sequence,measurement,setting,value
AAVPAYDKIQV [STXBP2_Y401_R405Q],Screen,Fer kinase domain; [1],1.488
AEFGLYGAMVW [VSX2_Y222_R227W_YF],Screen,Fer kinase domain; [1],1.328
same,Screen,c-Src kinase domain; [2],-0.4242
same,Screen,c-Abl kinase domain; [3],3.628
AELKLYSGAQT [ZAP70_Y178_R175L],Screen,c-Abl kinase domain; [3],-2.646
AERKLYRNVML [ZNF569_Y33_Q29E],Screen,c-Abl kinase domain; [3],1.464
AKLDIYKRKVE [VWA3B_Y918_N916D],Screen,c-Abl kinase domain; [3],4.352
AVLSLYASGRN [ACTA1_Y145_T150N],Screen,c-Abl kinase domain; [4],-2.061
CHKRTYKVTGL [TTN_Y21853_C21851R],Screen,c-Abl kinase domain; [3],-1.801
CHSDDYVHISI [TSC1_Y406_L411I],Screen,c-Abl kinase domain; [3],-1.634
CPASVYTKRCS [CPT2_Y508_R503C],Screen,c-Abl kinase domain; [4],-1.448
DAVCFYRMENA [NPHS2_Y195_I192V_YF],Screen,c-Src kinase domain; [2],0.05721
DEWFLYKMRDI [CPS1_Y879_K875E],Screen,c-Abl kinase domain; [4],-2.954
EAIMTYVSSFF [ACTN4_Y260_K255E_YF],Screen,c-Abl kinase domain; [4],-1.004
EFFDGYWEFSV [ITGA2B_Y265_G267E_YF],Screen,c-Src kinase domain; [5],0.01389
EGDGVYTLNDE [HP_Y125_N129D],Screen,c-Src kinase domain; [5],-0.1677
ELTTCYRKKCS [CCBE1_Y70_C75S],Screen,c-Abl kinase domain; [4],-0.6974
ENELTYFCFKK [CD59_Y86_C89Y_YF],Screen,c-Src kinase domain; [5],1.06
ETKTPYTVILI [SBDS_Y128_R126T],Screen,c-Abl kinase domain; [3],0.2291
EVTRLYGSVCD [TC2N_Y154_K151T],Screen,c-Src kinase domain; [2],2.081
FMGVEYSSCDT [EPHA3_Y937_T933M],Screen,c-Abl kinase domain; [4],-2.367
FSQETYFRVSN [ABCD1_Y180_Q178E_YF],Screen,c-Src kinase domain,0.7032
FTGDIYSSSNL [LZTR1_Y141_N143S_YF],Screen,Fer kinase domain; [6],-0.3328
same,Screen,c-Src kinase domain; [5],-0.3427
GFPVHYTGVSN [DNMT3B_Y815_D817G],Screen,c-Abl kinase domain; [4],0.7985
GGPAGYLWRAS [PKLR_Y38_R40W],Screen,c-Abl kinase domain; [4],0.4229
GHMFAYDWISI [BEST1_Y227_L224M_YF],Screen,Fer kinase domain; [6],-0.1339
GHPFAYDWISI [BEST1_Y227_L224P_YF],Screen,Fer kinase domain; [6],-0.03554
GLQDEYDFKCK [STAT1_Y170_D165G],Screen,c-Abl kinase domain; [3],-1.133
GSERRYTREGG [PTPRN2_Y139_S140T],Screen,c-Abl kinase domain; [4],-0.6086
HFGNNYTDVLQ [MACC1_Y803_R804T_YF],Screen,EPHB1 kinase domain,1.456
HFMELYDLNRD [BBS2_Y648_R643H_YF],Screen,c-Src kinase domain; [5],1.185
HFVDEYDRTIE [KRAS_Y32_P34R],Screen,c-Abl kinase domain; [4],1.156
HILFRYPKEFQ [IDS_Y234_P231L],Screen,c-Src kinase domain; [5],0.8356
HLTLVYGGIFL [FBP1_Y259_R255L],Screen,c-Src kinase domain; [5],-0.5188
HLVLNYGVCIC [JAK2_Y613_V617I],Screen,EPHB1 kinase domain,-0.07338
IFGVSYGEFRF [CFTR_Y512_D513G_YF],Screen,Fer kinase domain; [6],-1.628
same,Screen,c-Src kinase domain; [5],1.211
INMKEYCKKDF [NTN1_Y490_K489E_YF],Screen,c-Abl kinase domain; [4],0.9886
ISRDVYSTDFF [NTRK2_Y702_M697I_YF],Screen,c-Src kinase domain; [2],0.05631
KGEDFYCVTCP [FHL1_Y149_H154P],Screen,Fer kinase domain; [6],2.355
same,Screen,c-Src kinase domain; [5],2.585
same,Screen,c-Abl kinase domain; [4],-1.428
KKDGPYDVVVL [PARK7_Y67_E64D],Screen,Fer kinase domain; [6],-0.9233
KQMEQYMSFHK [HCN1_Y417_V414M],Screen,c-Src kinase domain; [5],0.2609
KTSGNYLPVTG [WDR19_Y28_A30P],Screen,c-Abl kinase domain; [3],-2.37
LDPDSYNVFEN [FOXC1_Y159_M161V],Screen,c-Abl kinase domain; [4],-0.1184
LDTSQYFRLFN [CPT2_Y217_M214T],Screen,c-Abl kinase domain; [4],-0.04852
LFLASYCIGGG [UBD_Y161_C160S],Screen,c-Abl kinase domain; [3],1.114
LIGTPYWMAPE [PAK5_Y608_V604I],Screen,c-Src kinase domain; [2],-0.06712
LITTPYIGFLG [KCNQ1_Y267_L266P],Screen,c-Src kinase domain; [5],-1.29
LKVQVYILGRE [ASS1_Y359_G356V],Screen,Fer kinase domain; [6],1.05
LTELGYSFVTT [ACTA1_Y200_R198L],Screen,Fer kinase domain; [6],0.9203
MSDVPYVMNRG [ACAT1_Y161_N158D],Screen,c-Abl kinase domain; [4],0.04557
NFPGGYSGSVK [MCPH1_Y606_L602F],Screen,c-Abl kinase domain; [4],0.06785
NTEGGYCCICA [CRELD1_Y328_R329C],Screen,c-Abl kinase domain; [4],-0.2438
NTGDDYDLFGG [PTPN11_Y63_Y62D_YF],Screen,Fer kinase domain; [1],-1.594
same,Screen,c-Src kinase domain; [2],-2.136
NWGSPYKSDGC [ZNF347_Y261_N264D],Screen,c-Abl kinase domain; [3],3.66
PADCRYFTFPQ [GAMT_Y222_A224T_YF],Screen,c-Src kinase domain; [5],0.8198
PFSSPYENSLI [EPOR_Y489_N487S_YF],Screen,Fer kinase domain; [6],0.2958
PINLFYLMDLS [ITGB2_Y131_D128N_YF],Screen,c-Src kinase domain; [5],-0.4123
PMWHPYKADVT [TP53TG5_Y255_V257A],Screen,c-Src kinase domain; [2],-1.569
PNLILYGDFRQ [MYH7_Y715_R712L],Screen,c-Src kinase domain; [2],-0.8884
PQEVMYAQLDH [KIR3DL2_Y398_T397M],Screen,Fer kinase domain; [6],0.4165
same,Screen,c-Src kinase domain; [5],-0.9154
PSPMPYAFCQM [FOXL2_Y215_S217F],Screen,Fer kinase domain; [6],3.3
same,Screen,c-Src kinase domain; [5],1.188
PVDGEYFTLQI [TP53_Y327_L323V],Screen,c-Src kinase domain; [2],-0.1089
QHVPDYRQNGF [PCDHGA6_Y891_V895G_YF],Screen,c-Abl kinase domain; [4],0.1057
REVPVYISEDS [SYNM_Y460_G462S],Screen,c-Src kinase domain; [2],1.666
RQIQSYTCEID [DES_Y331_H326R],Screen,c-Abl kinase domain; [4],0.08274
RSACTYLAPHL [PLK3_Y615_S618P],Screen,c-Src kinase domain; [2],2.785
same,Screen,EPHB1 kinase domain,2.327
RSSGGYEPRGC [FUS_Y239_R244C],Screen,c-Abl kinase domain; [4],-2.404
RSSNTYTLMDV [ALCAM_Y298_T301M],Screen,c-Src kinase domain; [5],-0.02147
RTTIHYNFMCN [TP53_Y234_C229R_YF],Screen,c-Abl kinase domain; [3],1.254
RVFRDYVLKSA [HTATIP2_Y111_D108Y_YF],Screen,c-Abl kinase domain; [4],-1.327
SEKVVYQRFTE [NCF1_Y41_R42Q],Screen,c-Src kinase domain; [2],2.147
SRDDFYETIAM [NPY1R_Y347_D346Y_YF],Screen,Fer kinase domain; [6],2.699
SSEILYHIIKG [CDH17_Y489_K486E],Screen,c-Src kinase domain; [5],3.183
SVESPYGSVTF [NDRG2_Y47_T45S],Screen,Fer kinase domain; [6],0.8943
same,Screen,c-Src kinase domain; [2],0.3806
SVGGCYEQLFV [MC4R_Y41_D37V],Screen,Fer kinase domain; [6],-0.4465
same,Screen,c-Src kinase domain; [5],-0.5254
SVVVHYEPPEV [TP53_Y220_P219H],Screen,Fer kinase domain; [1],1.725
SWSTSYSGFRC [NKAPL_Y91_Y96C_YF],Screen,Fer kinase domain; [6],-1.554
same,Screen,c-Src kinase domain; [2],-0.8065
TEDELYQLFLQ [RASGRP2_Y378_S381F],Screen,Fer kinase domain; [1],1.535
same,Screen,c-Src kinase domain; [2],1.657
TEIGQYGNGLK [MORC2_Y100_Q96E],Screen,c-Abl kinase domain; [4],-0.8794
TLERHYKELQA [SPTBN2_Y834_E835K],Screen,Fer kinase domain; [1],-2.093
TLGPFYPSLLF [CRYAA_Y18_R21L],Screen,c-Abl kinase domain; [4],1.059
TVSQPYSFIEF [SEC22B_Y110_R108Q],Screen,Fer kinase domain; [1],0.7571
same,Screen,c-Src kinase domain; [2],0.852
TWEKPYECVQC [ZNF24_Y335_G331W],Screen,Fer kinase domain; [1],1.366
same,Screen,c-Abl kinase domain; [3],-4.858
VCDALYPPGPP [TTN_Y25928_A25923V],Screen,c-Abl kinase domain; [3],-1.728
VDTPMYATMQR [TPO_Y55_A53P],Screen,c-Src kinase domain; [2],-0.2543
VHLFAYDWISI [BEST1_Y227_G222V_YF],Screen,Fer kinase domain; [6],-0.5402
VLAAQYTTVGR [SGSH_Y240_D235V],Screen,c-Abl kinase domain; [3],1.42
VPLATYMQIFK [RPL21_Y30_R32Q_YF],Screen,c-Src kinase domain; [2],1.658
same,Screen,EPHB1 kinase domain,2.259
VPVPGYTKVPE [SPRR3_Y146_L149V],Screen,c-Abl kinase domain; [3],2.059
VVRSLYEDLED [VHL_Y185_I180V],Screen,c-Abl kinase domain; [3],-2.047
VWHRRYKHTHE [CTCF_Y343_R339W],Screen,c-Abl kinase domain; [4],-0.9062
WNDPDYMDSRR [GAA_Y407_L405P],Screen,c-Abl kinase domain; [4],-1.862
